{
  "source": "patent US20200016097A1",
  "about": "“Methods for Preventing and Treating Radiation-Induced Epithelial Disorders” (priority 2009, published 2020)",
  "test_system": "IEC-18 cells",
  "experiment": "Repair of mechanically wounded IEC-18 monolayers",
  "type": "cell-based, rat",
  "settings": "5% PEG 15-20, 50 ng/ml EGF; after 24 hours",
  "method": "In order to assess the ability of HMW PEG to induce the repair of epithelial monolayers following injury, IEC-18 cells were grown to confluency in 60 mm dishes, rinsed then the monolayer was mechanically wounded using a razor blade. Detached cells were removed and fresh medium containing 5% PEG 15-20, 50 ng/ml Epidermal Growth Factor (EGF) or a combination of both was added. The cells were maintained in the presence of treatment for 24 hours or were treated for 2 minutes, washed then incubated without treatment for 24 hours. Wound healing was assessed by the decrease in the length of the wound after 24 hours.",
  "data": [
    {"substance": "EGF: Epidermal Growth Factor, 50 ng/ml (NSDSECPLSHDGYCLHDGVCMYIEALDKYACNCVVGYIGERCQYRDLKWWELR; UniProt P01133 971-1023, looked up)", "values": [
      {"measurement": "wound healing (decrease in the length of the wound)", "value": "induced wound healing"}
    ]}
  ]
}
